Data from patent publication US20240101600A1, “FIBROBLAST GROWTH FACTOR RECEPTOR (FGFR)-TARGETING ANTAGONISTIC SHORT PEPTIDE” (WENZHOU MEDICAL UNIVERSITY, priority 2019, published 2024).
Where no end group is shown, it is not given here.

Experiments:
[1] = molecular target: FGFR1B (Homo sapiens, UniProt P11362); assay: SPR detection of interaction with FGFR1B in presence of bFGF; format: binding
Method: Amino acid sequence of P9 degraded short peptide P48 was analyzed using Amber11 program. An initial structure of the P9 and P48 peptide chains was constructed using a sequence command in a Tleap module of the Amber11 program. Hydrogen atoms were added using the Tleap module of the Amber11 program, a […] TIP3P solvent box was added at a distance of 10 Å from the peptide chain, and counter ions were added to the two systems to keep the system electrically neutral. The system was subjected to 20-ns NPT system simulation to obtain an optimal spatial structure. […] The experimental procedure was as follows: the plasma was centrifuged and the supernatant was removed, and 60 μl of peptide was added to incubate for different lengths of time (P9 was incubated for 5, 10, 15, 20, 25, 30 and 45 min; P48 was incubated for 1, 2, 3, 4, 5, 10 and 12 h), and the incubation was terminated with 200 μl of 5% glacial acetic acid. Solid phase extraction: activation was conducted with 1.5 ml of methanol, an obtained product was washed with 1.5 ml of H2O, 400 μl of a sample was loaded, washed with 1 ml of H2O, and elution was conducted with 2 ml of 30% acetonitrile to collect samples, and the samples were freeze-dried and subjected to liquid chromatography analysis. […] The last 1 ns of trajectory obtained by molecular dynamics simulation of the system was selected to calculate the binding free energy, the molecules of the solvent of water and counter ion were deleted, and conformation was recorded every 10 ps to obtain a total of 101 structures. The binding free energy between FGF2 and FGFR1 were calculated by a molecular mechanics-generalized born surface area (MM-GBSA) method. The binding free energy and energy decomposition of amino acid residues were calculated using an MMPBA.py script provided by the Amber11. […] After bFGF and FGFR1 flew into the sensor chip, P48 (50 μM, 100 μM, 200 μM, 300 μM and 400 μM) was injected into a sensor surface, and the obtained data was analyzed using BIAevaluation software.

[2] = molecular target: T1, FGFR1 (Homo sapiens, UniProt P11362); assay: Flow cytometry binding of P48 to FGFR1 in SGC-7901 cells; format: cell-based; design: endogenous in cells; host or cells: Hela229; NCI-H460; SGC-7901; MGC-803
Method: Human embryonic kidney cells HEK-293, fibroblasts MEF-WT and Balb/c 3T3 were inoculated into 6-well plates, respectively. After growing adherently overnight, the cells were pretreated with P48 for 10 min or with AZD4547/PD173074/SSR for 2 h, and incubated with bFGF for 15 min. […] The experimental procedure was as follows: MEF-WT and MEFKO (FGFR1-FGFR2-FRS2a) cells (1×10^6 cells/ml) were inoculated in a 35 mm petri dish. After being adhered to the wall of petri dish overnight, the cells were washed with PBS; FITC-conjugated P48 (1, 10, 100 and 1000 nM) was added, and the cells were incubated in an incubator for 30 min. The cells were immobilized with 1% paraformaldehyde in the dark and washed with PBS. An expression level of the FITC was measured at a fluorescence channel 1 (FL-1) (530 nm), with an excitation wavelength of 488 nm. Data analysis was conducted using CellQuest software (Becton Dickinson).
(§1) Cervical cancer cells Hela229, melanoma B16-F10, lung cancer cells NCI-H460, gastric cancer cells SGC-7901 and MGC-803 were inoculated into 6-well plates, respectively. After growing adherently overnight, the cells were pretreated with P48 for 10 min or with AZD4547/SSR for 2 h, and incubated with bFGF for 15 min or with KGF for 20 min.

[3] = molecular target: FGFR3B (Homo sapiens, UniProt P22607); assay: SPR detection of interaction with FGFR3B; format: binding
[4] = molecular target: T1, FGFR1; assay: Western blot of FGFR1 signaling pathway in gastric cancer cells SGC-7901 and MGC-803; format: cell-based; design: endogenous in cells; host or cells: Hela229; NCI-H460; SGC-7901; MGC-803
Method: as §1

[5] = gastric cancer cell lines, bFGF stimulation

T1 sequence (P11362 22-822): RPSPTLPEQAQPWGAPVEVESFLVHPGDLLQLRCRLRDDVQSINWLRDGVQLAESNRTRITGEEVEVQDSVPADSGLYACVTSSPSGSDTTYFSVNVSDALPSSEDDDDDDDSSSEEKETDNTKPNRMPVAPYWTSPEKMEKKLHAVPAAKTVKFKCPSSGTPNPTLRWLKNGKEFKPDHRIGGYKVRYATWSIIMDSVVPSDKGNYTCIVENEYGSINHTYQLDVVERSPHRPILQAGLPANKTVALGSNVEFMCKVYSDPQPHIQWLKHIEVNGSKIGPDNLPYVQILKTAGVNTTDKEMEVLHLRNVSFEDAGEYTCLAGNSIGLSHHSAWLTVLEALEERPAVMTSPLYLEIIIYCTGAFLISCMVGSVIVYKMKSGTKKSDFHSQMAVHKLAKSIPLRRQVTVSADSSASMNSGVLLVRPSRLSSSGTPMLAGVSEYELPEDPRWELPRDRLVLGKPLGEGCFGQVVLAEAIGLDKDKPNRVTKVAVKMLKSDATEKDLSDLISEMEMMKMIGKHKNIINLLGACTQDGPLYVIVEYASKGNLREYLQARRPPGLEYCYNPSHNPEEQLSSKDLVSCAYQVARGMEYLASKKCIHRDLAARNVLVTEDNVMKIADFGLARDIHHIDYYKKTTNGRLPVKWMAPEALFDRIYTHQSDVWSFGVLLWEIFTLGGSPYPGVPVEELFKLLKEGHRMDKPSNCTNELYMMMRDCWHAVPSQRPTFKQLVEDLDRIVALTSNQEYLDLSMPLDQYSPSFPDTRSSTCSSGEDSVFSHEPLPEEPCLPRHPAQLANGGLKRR
FGFR1B, sequence (P11362 22-822 isoform P11362-19 limits assumed): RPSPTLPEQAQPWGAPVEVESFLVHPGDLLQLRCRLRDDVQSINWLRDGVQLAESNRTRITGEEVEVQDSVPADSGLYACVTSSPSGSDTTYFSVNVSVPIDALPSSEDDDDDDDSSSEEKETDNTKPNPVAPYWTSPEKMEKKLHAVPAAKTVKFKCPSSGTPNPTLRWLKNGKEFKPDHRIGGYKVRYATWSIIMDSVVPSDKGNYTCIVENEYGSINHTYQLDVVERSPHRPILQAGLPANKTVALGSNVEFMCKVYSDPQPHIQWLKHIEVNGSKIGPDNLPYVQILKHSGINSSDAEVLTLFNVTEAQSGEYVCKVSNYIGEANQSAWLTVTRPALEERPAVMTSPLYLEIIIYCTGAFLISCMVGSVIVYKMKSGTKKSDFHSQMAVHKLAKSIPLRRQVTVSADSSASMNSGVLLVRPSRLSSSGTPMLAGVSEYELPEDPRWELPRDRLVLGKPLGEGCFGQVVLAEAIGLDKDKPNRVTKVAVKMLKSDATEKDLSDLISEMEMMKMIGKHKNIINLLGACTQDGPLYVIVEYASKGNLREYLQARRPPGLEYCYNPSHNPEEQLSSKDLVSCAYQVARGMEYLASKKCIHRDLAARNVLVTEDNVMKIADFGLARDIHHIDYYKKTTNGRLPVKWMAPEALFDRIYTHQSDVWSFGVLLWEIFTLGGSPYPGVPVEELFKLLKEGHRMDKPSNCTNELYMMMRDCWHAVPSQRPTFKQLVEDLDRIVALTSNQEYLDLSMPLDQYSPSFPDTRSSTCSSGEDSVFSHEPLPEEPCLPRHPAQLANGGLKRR
FGFR3B, sequence (P22607 23-808 isoform P22607-2 limits assumed): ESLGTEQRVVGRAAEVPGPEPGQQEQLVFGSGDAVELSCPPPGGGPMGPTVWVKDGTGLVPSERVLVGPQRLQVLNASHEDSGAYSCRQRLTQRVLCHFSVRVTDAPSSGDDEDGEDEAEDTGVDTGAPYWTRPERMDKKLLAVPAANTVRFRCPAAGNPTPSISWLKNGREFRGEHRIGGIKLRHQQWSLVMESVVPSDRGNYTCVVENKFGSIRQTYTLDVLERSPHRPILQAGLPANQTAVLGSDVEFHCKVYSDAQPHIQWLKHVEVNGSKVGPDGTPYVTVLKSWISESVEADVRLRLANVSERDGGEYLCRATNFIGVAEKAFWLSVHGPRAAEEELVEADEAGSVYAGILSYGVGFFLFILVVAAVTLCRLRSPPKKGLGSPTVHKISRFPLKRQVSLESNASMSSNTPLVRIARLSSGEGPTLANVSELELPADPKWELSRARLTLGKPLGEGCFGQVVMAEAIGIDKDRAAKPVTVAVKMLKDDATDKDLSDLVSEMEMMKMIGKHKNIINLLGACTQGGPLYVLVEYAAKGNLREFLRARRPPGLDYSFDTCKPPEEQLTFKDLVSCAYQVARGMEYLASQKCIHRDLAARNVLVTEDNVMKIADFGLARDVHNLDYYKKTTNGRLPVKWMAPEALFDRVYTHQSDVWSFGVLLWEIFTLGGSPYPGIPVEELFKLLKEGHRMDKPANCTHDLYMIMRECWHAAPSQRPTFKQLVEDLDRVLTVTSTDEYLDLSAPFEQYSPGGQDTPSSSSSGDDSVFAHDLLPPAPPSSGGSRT

binding degree FGFR1 versus FGFR2 and FGFR3 ([1]; comparison of FIG. 1F and FIG. 2): stronger than that with FGFR2 and FGFR3 | binding to the FGFR1 site of the cell membrane surface [2]: desirable binding effect | binding to FGFR3B [3]: can be bound | effect on KGF stimulation ([4]; SGC-7901, KGF 20 min): has no effect | effect on aFGF stimulation ([4]; SGC-7901, aFGF 15 min): has no effect | activity on FGFR1 signaling compared with AZD4547 [4, 5]: weaker than that of AZD4547 | inhibitory effect on FGFR1 signaling compared with SSR [4, 5]: comparable to that of the SSR
Substance: SPPRYPGGGS-NH2 [P48, Ser-Pro-Pro-Arg-Tyr-Pro-Gly-Gly-Gly-Ser-NH2]
competitive binding to FGFR1 with bFGF ([1]; P48 50-400 μM): can competitively bind to FGFR1 with basic fibroblast growth factor (bFGF) | concentration dependence of binding force ([1]; P48 50-400 μM): a higher concentration leads to a stronger binding force | inhibition of FGFR1 activation under bFGF stimulation ([4]; SGC-7901, bFGF 15 min): can only inhibit the activation of FGFR1 induced by bFGF | inhibition of FGFR1 signaling pathway ([4]; gastric cancer (SGC-7901, MGC-803), bFGF stimulation): can inhibit the FGFR1 signaling pathway of cervical cancer, melanoma, lung cancer and gastric cancer in a concentration-dependent manner
